These results are taken from ChEMBL document CHEMBL1151859, “Structure-activity relationship studies of a novel series of anthrax lethal factor inhibitors” (Bioorg Med Chem, 2009).

pEC50, pIC50, pKi: −log10 of the molar value. The source made the active and inactive calls. The calls are words filed in the database; no cut-off is given here.

As a reminder, the pIC50 is the IC50 on a negative log10 scale, so that one unit is a factor of ten. As usually defined, the pEC50 is the EC50 on a negative log10 scale, so that one unit is a factor of ten. As usually defined, the pKi is −log10 of the Ki, conventionally taken in molar units.

In series [1] the test system is HeLa. Kind of series: Protection against anthrax protective antigen-38/LF-induced cell death in human HeLa cells assessed as MEK1 cleavage at 30 uM treated 90 mins after PA38/LA challenge immunoblotting assay. The format is functional, cell-based. For orientation: Immunoblotting shows a protein as a band on a membrane.
The target in the next series is T1, Lethal factor (Bacillus anthracis, UniProt P15917).
T1 sequence (P15917 whole entry): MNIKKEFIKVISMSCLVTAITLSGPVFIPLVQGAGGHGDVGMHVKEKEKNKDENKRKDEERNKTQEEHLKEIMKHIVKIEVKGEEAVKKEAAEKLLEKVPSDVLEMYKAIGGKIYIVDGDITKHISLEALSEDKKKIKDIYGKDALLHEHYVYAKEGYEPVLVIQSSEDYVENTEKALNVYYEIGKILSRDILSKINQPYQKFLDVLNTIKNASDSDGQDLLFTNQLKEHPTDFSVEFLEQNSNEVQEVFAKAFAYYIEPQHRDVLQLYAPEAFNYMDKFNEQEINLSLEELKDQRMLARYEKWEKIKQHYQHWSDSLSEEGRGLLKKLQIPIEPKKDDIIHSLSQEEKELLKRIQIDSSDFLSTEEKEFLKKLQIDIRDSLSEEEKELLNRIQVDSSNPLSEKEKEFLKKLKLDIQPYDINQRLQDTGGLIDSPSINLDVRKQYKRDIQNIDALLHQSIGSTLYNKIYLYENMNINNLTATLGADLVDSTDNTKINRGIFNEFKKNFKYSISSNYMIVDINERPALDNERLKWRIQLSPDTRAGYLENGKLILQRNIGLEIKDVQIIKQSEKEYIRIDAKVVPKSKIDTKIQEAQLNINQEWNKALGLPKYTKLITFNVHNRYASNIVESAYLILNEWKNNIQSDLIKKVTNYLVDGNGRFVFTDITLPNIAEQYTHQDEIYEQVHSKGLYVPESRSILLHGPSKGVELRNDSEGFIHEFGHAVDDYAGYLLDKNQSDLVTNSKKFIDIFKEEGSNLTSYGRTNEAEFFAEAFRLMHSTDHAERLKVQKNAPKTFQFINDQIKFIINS
Description: Inhibition of Bacillus anthracis lethal factor assessed as cleavage of MAPKK by fluorescence peptide cleavage assay.

The nature of series [2]: Chemical stability of the compound. The format is physicochemical.
Series [3] in a line: Solubility at 500 uM. The format is physicochemical.
The subject of series [4] is HeLa. Kind of series: Protection against anthrax protective antigen-38/LF-induced cell death in human HeLa cells assessed as MEK1 cleavage at 300 uM treated 90 mins after PA38/LA challenge immunoblotting assay. The format is functional, cell-based.
For a further series, the system named is RAW264.7. Description: Protection against anthrax protective antigen-38/LF-induced cell death in mouse RAW264.7 cells pretreated for 2 hrs followed by PA38/LA challenge assessed as cell viability measured after 4 hrs by ATPlite assay. The format is functional, cell-based.
Series [5] deals with Bacillus anthracis. Kind of series: Antibacterial activity against Bacillus anthracis Sterene infected in A/J mouse assessed as mouse survival at 25 mg/kg, ip daily after 24 hrs of infection for 8 days relative to control. It is filed as functional, organism-based. Also on record: dose 25 mg/kg.
The test system of series [6] is HeLa. Description: Protection against anthrax protective antigen-38/LF-induced cell death in human HeLa cells assessed as MEK1 cleavage at 100 uM treated 90 mins after PA38/LA challenge immunoblotting assay. The format is functional, cell-based.
For series [7], the system named is Bacillus anthracis. Description: Antibacterial activity against Bacillus anthracis Sterene infected in A/J mouse assessed as mouse survival at 25 mg/kg, ip daily after 24 hrs of infection for 8 days. It is filed as functional, organism-based. Also noted: dose 25 mg/kg.

As to `Cc1cc(S(=O)(=O)N[C@H](C(=O)NO)C2CCOCC2)ccc1F`, the result in the series on HeLa [1] was Active.

Regarding `CCOC(=O)CCc1c(CC(=O)OCC)c[nH]c1/C=N/O`, in the series on HeLa [1], the outcome was inactive.

`Cc1csc(NS(=O)(=O)c2ccc([N+](=O)[O-])cc2)c1-c1nc2ccccc2s1`: the pIC50 at Lethal factor was 4.96. The Stability in series [2] was 99%. In addition, the solubility result in series [3] is “Insoluble”.

Consider `Nc1ccc(Nc2ccc(N)cc2S(=O)(=O)O)cc1`, for which the result in the series with HeLa [4] was Active.

With `Cc1ccc(S(=O)(=O)Nc2sccc2-c2nc3ccccc3s2)cc1Cl`, at Lethal factor, the pIC50 is 5.18. Moreover, the pEC50 in the series on RAW264.7 was 6.00. In series [2], this molecule yielded a Stability of 99%. Besides, the outcome with Bacillus anthracis [5] was Active.

As to `O=S(=O)(Nc1sccc1-c1nc2ccccc2s1)c1ccc(-c2ccc(Cl)cc2)cc1`, on Lethal factor, the pIC50 was 5.52 and the pKi was 5.77. Also, the pEC50 with RAW264.7 is 6.60. Also, the solubility entry in series [3] is reported as “Insoluble”.

Regarding `O=S(=O)(Nc1sccc1-c1nc2ccccc2s1)c1ccc2ncsc2c1`, the pIC50 at Lethal factor was 5.00. Moreover, the pEC50 in the series on RAW264.7 was 5.80. Moreover, the Stability in series [2] was 99.9%.

As to `CC(C)(C)c1ccc(-c2noc(C(=O)NNC(=S)Nc3ccc(C(F)(F)F)cc3)n2)cc1`, the outcome with HeLa [1] was Active.

As for `COc1ccc(-c2ccc(S(=O)(=O)Nc3sccc3-c3nc4ccccc4s3)cc2)cc1`, at Lethal factor, the pIC50 was 5.42. Moreover, the pEC50 with RAW264.7 was 6.30. Also, the Stability in series [2] is recorded as 84%. In addition, the result in the series with HeLa [6] and with Bacillus anthracis [7] was Active. Also, in series [3], the solubility entry is recorded as “Insoluble”.

Regarding `CC(C)(C)C(=O)CSC1=NNC(c2ccccc2)S1` (stereo not given), the outcome with HeLa [1] was inactive.
